Patent US7538129B2, “Diazonamide A analog” (Board of Regents, The University of Texas System, priority 2005, dated 2009)

Experiments:
MDA-MB-231 = assay: growth inhibition (GI50) of tumor cell lines; assay type: cell-based; details: MDA-MB-231, FIG. 1
Experimental: A number of tumor cell lines representing breast, lung, colon, ovarian and prostate cancer as well as melanoma were assayed under standard growth conditions in presence of varying amounts of diazonamide A, a hydroxylated form of Compound J, Compound J, paclitaxel and vinblastine. The results are graphed as the concentration that diminishes growth by a factor of two (GI50) in FIG. 1.

HCT116 xenografts = assay: growth inhibition of HCT116 xenografts; assay type: in vivo, mice; details: HCT116 (colon), 0.45 mg/kg, IP
Experimental: Details of the preparation of murine models containing xenografts of HCT116 cells or PC-3 cells are described in the section following these examples. After the tumors were grown, therapy utilizing Compound J or paclitaxel was initiated. […] In FIG. 4A, the *'s represent control mice, the squares represent 5 mg/kg Compound J; the diamonds represent 20 mg/kg Compound J; and the slanted line represents 20 mg/kg paclitaxel.
The details of the protocol for Examples 19 and 20 are as follows:
• PC3 prostrate tumor cells and HCT116 colon tumor cells (acquired from the tumor repository Division of Cancer Treatment and Diagnosis (DCTD) of the NCI • Complete RPMI Media • RPMI (Cat# 11875-085, Invitrogen) • 10% Heat-inactivated (30′ 56° C.) Fetal Bovine Serum (Cat# 100-106, Gemini Bio-Products • 2 mM L-glutamine (Cat# 25030-081, Invitrogen) • 0.1 mM MEM Non-Essential Amino Acids Solution (Cat#11140-050, Invitrogen) • 10 U/ml Penicillin/10 μg/ml Streptomycin (Cat#15140-122, Invitrogen) • 1 mM Sodium Pyruvate (Cat#l 1360-070) • Trypsin-EDTA (Cat#25300-054, Invitrogen) • Ca^2+/Mg^2+-free Phosphate Buffered Saline, 5% dextrose in water • Cell Culture Dish 150 mm×25 mm (Cat# 430599, Coming, Inc.) • 10 and 25 ml pipets, standard pipet-aid, p200 and p1000 pipette tips and standard pipetmen • Athymic NCr-nu/nu nude mice at 6-12 weeks of age, either sex (Strain code: 01B74, NCI Frederick Animal Production Program—suppliers include Charles River Labs and Taconic Farms). Female mice of approximately 7 weeks of age were utilized for existing experiments. • Standard 1 cc tuberculin syringe, 30G½ and 25G⅝ needles (Becton Dickinson) • Falcon 5 ml tubes (Cat#352054) • 50 and 15 ml disposable plastic conical tubes (Falcon or similar vendor) • Trypan Blue Solution (0.4%) (Cat#T8154, Sigma) • Hausser phase contrast hemacytometer (Cat# 02-671-54, Fisher) • Ice bucket • Balance for weighing mice (accurate to 0.2 g) • Vernier calipers • Vivarium facility free from known pathogens (nude mice should be housed in isolation from conventional mice if possible—separate rooms or micro-isolator cages equipped with individual air flow; all animal housing, bedding, water should be autoclaved prior to use; standard irradiated mouse chow should be used; animals should be changed out of cages within laminar flow hood; investigators handling mice should be suitably garbed—disposable gown, bonnet, booties, gloves, mask) • AB-5 (Compound J) compound • Ethyl alcohol, 200 proof (Aaper, MFD 041205) • Cremaphor (Cat# C5135, Sigma) • Paclitaxel (Cat#ANP0010, Polymed Therapeutics) Procedure: • 1) Rapidly thaw PC3 or HCT116 cells (if necessary) in 37° C. water bath. Transfer contents to 9ml complete RPMI media. Spin 5′ at 1200 rpm (240 Xg). Discard media and resuspend pellet in 8 ml complete RPMI media. Plate in 100 mm×25 mm cell culture dish in 5% CO2, 37° C. humidified incubator. • 2) Allow to grow for 5-10 days, splitting (aspirate media, wash with 3-5 ml PBS, add 1 ml trypsin-EDTA, incubate 3-5′ at 37° C., add media to desired volume and transfer to multiple plates) 1:8 to 1:10 every 3-4 days as necessary to allow cells to enter phase of logarithmic growth. • 3) When cells are growing well, begin to expand to 150 mm×25 mm dishes. We use 20 ml of media in a 150 mm dish and use 2 ml of trypsin for splitting. When nearly confluent, there should be 2×10^7 cells/150 mm dish. • 4) Plan ahead to time arrival of nu/nu mice such that they can acclimate to animal facility for 1 week prior to injection of tumor cells. […] Plan to inject 10 million cells/mouse and allow for loss of cells/volume during injection process. That is, if 30 mice are to be injected, plan to harvest cells sufficient for at least 35 injections—35×10 million cells=3.5×10^8 cells. In the existing HCT116 experiment, 7.5×10^6 cells were injected per mouse. Five mice per group were utilized for AB-5 treatment and four mice per group were utilized for the control and paclitaxel treatments. […]

[1] = test system: MDA-MB-435 (breast) xenografts; assay: growth inhibition of MDA-MB-435 xenografts; assay type: in vivo, mice; details: 0.7 mg/kg, IP

Row | Compound | GI50 (concentration that diminishes growth by a factor of two) (MDA-MB-231) | #Tumor Free (day) (HCT116 xenografts) | % Max T/C (HCT116 xenografts) | Log10 Tumor Cell Kill (HCT116 xenografts) | #Tumor Free (day) [1]
1 | CC(C)[C@H](O)C(=O)N[C@H]1Cc2ccc3c(c2)[C@]24C5=C(N=C(O5)[C@H](C(C)C)NC1=O)c1nc(Cl)c(o1)-c1c(Cl)[nH]c5cccc(c15)-c1cccc2c1N[C@@H]4O3 [diazonamide A] | more effective than the remaining drugs |  |  |  | 
2 | CC[C@]1(O)C[C@@H]2CN(CCc3c([nH]c4ccccc34)[C@@](C(=O)OC)(c3cc4c(cc3OC)N(C)[C@H]3[C@@](O)(C(=O)OC)[C@H](OC(C)=O)[C@]5(CC)C=CCN6CC[C@]43[C@@H]65)C2)C1 [vinblastine, reference compound] | more effective than the remaining drugs | 0/5 | 56.0% | 0.2 | 0/6
